Measurements published in US20240174637A1, “DEGRADERS OF GRK2 AND USES THEREOF” (Sonata Therapeutics, Inc., priority 2021, published 2024).
Structures can show the parent of a compound that is named as a salt. Where two headings read alike, the source gives them in different places.

Assays:
GRK2 [1] = molecular target: T1, GRK2 (Homo sapiens, UniProt P25098); experiment: GRK2 Inhibition Assay (TR-FRET, Example 1); format: biochemical
T1 sequence (P25098 1-689): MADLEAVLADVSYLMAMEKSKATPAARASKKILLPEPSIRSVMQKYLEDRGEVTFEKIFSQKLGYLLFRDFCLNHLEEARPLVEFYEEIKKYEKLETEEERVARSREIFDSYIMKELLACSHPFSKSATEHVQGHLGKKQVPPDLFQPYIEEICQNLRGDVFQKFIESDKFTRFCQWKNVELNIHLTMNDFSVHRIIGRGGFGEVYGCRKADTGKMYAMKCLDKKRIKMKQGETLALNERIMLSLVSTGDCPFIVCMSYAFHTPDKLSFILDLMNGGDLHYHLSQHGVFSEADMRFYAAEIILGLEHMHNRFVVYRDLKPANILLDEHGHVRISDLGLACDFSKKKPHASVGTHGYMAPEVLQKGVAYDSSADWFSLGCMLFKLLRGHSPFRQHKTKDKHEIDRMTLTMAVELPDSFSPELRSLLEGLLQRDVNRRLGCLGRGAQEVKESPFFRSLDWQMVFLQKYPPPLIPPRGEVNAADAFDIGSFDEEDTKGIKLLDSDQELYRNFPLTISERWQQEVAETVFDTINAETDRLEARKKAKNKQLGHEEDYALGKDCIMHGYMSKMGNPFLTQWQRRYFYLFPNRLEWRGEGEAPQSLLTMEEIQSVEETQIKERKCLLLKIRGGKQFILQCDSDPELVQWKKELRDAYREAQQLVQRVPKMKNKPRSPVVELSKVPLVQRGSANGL
Procedure, shortened: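 TR-FRET phosphorylation readout: Eu anti-TopoIIα antibody with EDTA added after a 90 min RT kinase reaction of 1 nM GRK2, 7 μM ATP and 50 nM ULight-TopoIIα. Compounds were pre-incubated with enzyme 30 min at room temperature beforehand.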

PAXF1657 EV = experiment: 7-day cellular proliferation assay (CellTiter-Glo), PAXF1657 EV; format: cell-based
Procedure, shortened: (§1)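 Viability by CellTiter-Glo after 7 days at 37° C., with compound-containing media replaced on day 3. Cells (500/well, RPMI1640 + 10% FBS) were PAXF1657 pairs: GRK2 overexpression vs empty vector, or CRISPR GRK2 knockout vs non-targeting clones; doses 30 μM-0.0002 μM final, 10 points, 0.3% DMSO.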

PAXF1657 KO Clone #4 = experiment: 7-day cellular proliferation assay (CellTiter-Glo), PAXF1657 KO Clone #4; format: cell-based
Procedure, shortened: as §1

GRK2 [2] = molecular target: T1, GRK2; experiment: GRK2 Degradation Assay and Western Blot in PAXF1657 cells; format: cell-based; design: endogenous in cells; host or cells: PAXF1657; details: for DC50: PAXF1657, 24 h, read-out: Degradation Assay - Full Dose Response: IC50 (uM) [cell line: PAXF1657, time point: 24 h]
Procedure, shortened: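 GRK2 degradation judged by immunoblot: NP40 lysates separated by SDS-PAGE and probed for GRK2 and β-actin, with HRP/ECL detection. Lysates came from PAXF1657 cells exposed to 0–10 μM compound for 6–24 h after reaching 70% confluency.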

[3] = Table 4, Example 1 assay, read-out: Enzymatic GRK2 IC50: Av IC50 GRK2
[4] = proliferation, read-out: GeoMean IC50 (UM) PAXF1657 EV
[5] = proliferation, read-out: GeoMean IC50 (uM) PAXF1657 KO Clone #4
[6] = Conc 0.3 uM, read-out: Degradation Assay - 3 point: Degradation (%)
[7] = Conc 1 uM, read-out: Degradation Assay - 3 point: Degradation (%)
[8] = Conc 3 uM, read-out: Degradation Assay - 3 point: Degradation (%)
[9] = TR-FRET, 7 μM ATP, read-out: Enzymatic GRK2 Assay: IC50 (nM) (Example 1)
[10] = 168 h, 7-day, read-out: 7-day proliferation assay: IC50 GeoMean (uM) [Cell Line: PAXF1657 EV]
[11] = 168 h, 7-day, read-out: 7-day proliferation assay: IC50 GeoMean (uM) [Cell Line: PAXF1657 KO Clone #4]
[12] = 0.3 uM, PAXF1657 EV, 24 hrs, read-out: % GRK2 degradation at 0.3 uM in PAXF1657 EV (24 hrs)
[13] = 1 uM, PAXF1657 EV, 24 hrs, read-out: % GRK2 degradation at 1 uM in PAXF1657 EV (24 hrs)
[14] = 3 uM, PAXF1657 EV, 24 hrs, read-out: % GRK2 degradation at 3 uM in PAXF1657 EV (24 hrs)

| IC50 (GRK2 [1]; [3]) [nM] | inhibition at 0.3 µM (GRK2 [2]; [6]) [%] | inhibition at 1 µM (GRK2 [2]; [7]) [%] | inhibition at 3 µM (GRK2 [2]; [8]) [%] | IC50 (GRK2 [1]; [9]) [nM] | % GRK2 degradation at 0.03 uM in PAXF1657 EV (24 hrs) (GRK2 [2]; 0.03 uM, PAXF1657 EV, 24 hrs) [%] | % GRK2 degradation at 0.1 uM in PAXF1657 EV (24 hrs) (GRK2 [2]; 0.1 uM, PAXF1657 EV, 24 hrs) [%] | inhibition at 0.3 µM (GRK2 [2]; [12]) [%] | inhibition at 1 µM (GRK2 [2]; [13]) [%] | inhibition at 3 µM (GRK2 [2]; [14]) [%] | % GRK2 degradation at 10 uM in PAXF1657 EV (24 hrs) (GRK2 [2]; 10 uM, PAXF1657 EV, 24 hrs) [%] | Compound | IC50 (PAXF1657 EV; [4]) [µM] | IC50 (PAXF1657 KO Clone #4; [5]) [µM] | DC50 (GRK2 [2]) [µM] | IC50 (PAXF1657 EV; [10]) [µM] | IC50 (PAXF1657 KO Clone #4; [11]) [µM] |
| --- | --- | --- | --- | --- | --- | --- | --- | --- | --- | --- | --- | --- | --- | --- | --- | --- |
| 16.3 | 87.4 | 92.4 | 91.5 |  |  |  |  |  |  |  | C[C@@H](NC(=O)c1cccc(NCc2nnc(-c3ccncn3)n2C)c1)c1cccc(OCCCCCCOCC(=O)N2CCN(c3ccc4c(c3)CN(C3CCC(=O)NC3=O)C4=O)CC2)c1 (stereo partly drawn) [Compound D132, N-((1R)-1-(3-(6-(2-(4-(2-(2,6-dioxopiperidin-3-yl)-1-oxoisoindolin-5-yl)piperazin-1-yl)-2-oxoethoxy)hexyloxy)phenyl)ethyl)-3-((4-methyl-5-(pyrimidin-4-yl)-4H-1,2,4-triazol-3-yl)methylamino)benzamide] | 0.04 | > 30 | 0.12 |  |  |
| 6.6 | 15 | 30 | -40 |  |  |  |  |  |  |  | Cc1ncsc1-c1ccc(CNC(=O)[C@@H]2C[C@@H](O)CN2C(=O)[C@@H](NC(=O)CCCOCCOCCOCCCCCCOc2ccc([C@@H](C)NC(=O)c3cccc(NCc4nnc(-c5ccncn5)n4C)c3)cc2)C(C)(C)C)cc1 [Compound D116] | 1.88 | 7.48 |  |  |  |
| 10.1 | 73.8 | 81.6 | 83.1 |  |  |  |  |  |  |  | C[C@@H](NC(=O)c1cccc(NCc2nnc(-c3ccncn3)n2C)c1)c1ccc(OCCCCCCOCCOCCOCCCCCC(=O)Nc2cccc3c2CN(C2CCC(=O)NC2=O)C3=O)cc1 (stereo partly drawn) [Compound D147, N-((1R)-1-(4-(6-(2-(2-(6-(2-(2,6-dioxopiperidin-3-yl)-1-oxoisoindolin-4-ylamino)-6-oxohexyloxy)ethoxy)ethoxy)hexyloxy)phenyl)ethyl)-3-((4-methyl-5-(pyrimidin-4-yl)-4H-1,2,4-triazol-3-yl)methylamino)benzamide] | 0.11 | > 30 |  |  |  |
| 22.1 | 83.9 | 81.6 | 50.3 |  |  |  |  |  |  |  | C[C@@H](NC(=O)c1cccc(NCc2nnc(-c3ccncn3)n2C)c1)c1cccc(OCCCCCOCCCOCCOc2cccc3c2CN(C2CCC(=O)NC2=O)C3=O)c1 (stereo partly drawn) [Compound D198, N-((1R)-1-(3-((5-(3-(2-((2-(2,6-dioxopiperidin-3-yl)-1-oxoisoindolin-4-yl)oxy)ethoxy)propoxy)pentyl)oxy)phenyl)ethyl)-3-(((4-methyl-5-(pyrimidin-4-yl)-4H-1,2,4-triazol-3-yl)methyl)amino)benzamide] | 0.01 | > 30 |  |  |  |
| 44.7 | 7.97 | 24 | 53.8 |  |  |  |  |  |  |  | C[C@@H](NC(=O)c1cccc(NCc2nnc(-c3ccncn3)n2C)c1)c1cccc(C(=O)N2CC(CN3CCN(c4ccc5c(c4)CN(C4CCC(=O)NC4=O)C5=O)CC3)C2)c1 (stereo partly drawn) [Compound D121, N-((1R)-1-(3-(3-((4-(2-(2,6-dioxopiperidin-3-yl)-1-oxoisoindolin-5-yl)piperazin-1-yl)methyl)azetidine-1-carbonyl)phenyl)ethyl)-3-((4-methyl-5-(pyrimidin-4-yl)-4H-1,2,4-triazol-3-yl)methylamino)benzamide hydrochloride] | 11.4 | > 30 |  |  |  |

Further lines, the compound ahead of its results:

| Compound | IC50 (GRK2 [1]; [3]) [nM] | inhibition at 0.3 µM (GRK2 [2]; [6]) [%] | inhibition at 1 µM (GRK2 [2]; [7]) [%] | inhibition at 3 µM (GRK2 [2]; [8]) [%] | IC50 (GRK2 [1]; [9]) [nM] | % GRK2 degradation at 0.03 uM in PAXF1657 EV (24 hrs) (GRK2 [2]; 0.03 uM, PAXF1657 EV, 24 hrs) [%] | % GRK2 degradation at 0.1 uM in PAXF1657 EV (24 hrs) (GRK2 [2]; 0.1 uM, PAXF1657 EV, 24 hrs) [%] | inhibition at 0.3 µM (GRK2 [2]; [12]) [%] | inhibition at 1 µM (GRK2 [2]; [13]) [%] | inhibition at 3 µM (GRK2 [2]; [14]) [%] | % GRK2 degradation at 10 uM in PAXF1657 EV (24 hrs) (GRK2 [2]; 10 uM, PAXF1657 EV, 24 hrs) [%] | IC50 (PAXF1657 EV; [4]) [µM] | IC50 (PAXF1657 KO Clone #4; [5]) [µM] | DC50 (GRK2 [2]) [µM] | IC50 (PAXF1657 EV; [10]) [µM] | IC50 (PAXF1657 KO Clone #4; [11]) [µM] |
| --- | --- | --- | --- | --- | --- | --- | --- | --- | --- | --- | --- | --- | --- | --- | --- | --- |
| C[C@@H](NC(=O)c1cccc(NCc2nnc(-c3ccncn3)n2C)c1)c1cccc(OCCCCN2CCN(c3ccc4c(c3)CN(C3CCC(=O)NC3=O)C4=O)CC2)c1 (stereo partly drawn) [Compound D129, N-((1R)-1-(3-(4-(4-(2-(2,6-dioxopiperidin-3-yl)-1-oxoisoindolin-5-yl)piperazin-1-yl)butoxy)phenyl)ethyl)-3-((4-methyl-5-(pyrimidin-4-yl)-4H-1,2,4-triazol-3-yl)methylamino)benzamide] | 27.9 | 79.8 | 77.5 | 70.6 |  |  |  |  |  |  |  | 0.1 | > 30 | 0.08 |  |  |
| Cc1ncsc1-c1ccc(CNC(=O)[C@@H]2C[C@@H](O)CN2C(=O)[C@@H](NC(=O)CCCCCOCCOCCOCCCCCCOc2cccc(C(C)NC(=O)c3cccc(NCc4nnc(-c5ccncn5)n4C)c3)c2)C(C)(C)C)cc1 (stereo partly drawn) [Compound D91, (2S,4R)-1-((2S)-2-(tert-butyl)-22-(3-(1-(3-(((4-methyl-5-(pyrimidin-4-yl)-4H-1,2,4-triazol-3-yl)methyl)amino)benzamido)ethyl)phenoxy)-4-oxo-10,13,16-trioxa-3-azadocosan-1-oyl)-4-hydroxy-N-(4-(4-methylthiazol-5-yl)benzyl)pyrrolidine-2-carboxamide] |  |  |  |  | < 100 | 37 | 28 | 42 | 51 | 16 | −4 |  |  |  | < 1 | 1 to 10 |
| Cc1ncsc1-c1ccc(CNC(=O)[C@@H]2C[C@@H](O)CN2C(=O)[C@@H](NC(=O)CCCCCOCCOCCOCCCCCCOc2cccc([C@@H](C)NC(=O)c3cccc(NCc4nnc(-c5ccncn5)n4C)c3)c2)C(C)(C)C)cc1 [Compound D79, (2S,4R)-1-((S)-2-(tert-butyl)-22-(3-((R)-1-(3-(((4-methyl-5-(pyrimidin-4-yl)-4H-1,2,4-triazol-3-yl)methyl)amino)benzamido)ethyl)phenoxy)-4-oxo-10,13,16-trioxa-3-azadocosan-1-oyl)-4-hydroxy-N-(4-(4-methylthiazol-5-yl)benzyl)pyrrolidine-2-carboxamide] |  |  |  |  | < 100 |  |  | 52 | 54 | 8 |  |  |  |  | < 1 | > 10 |
| Cc1ncsc1-c1ccc(CNC(=O)[C@@H]2C[C@@H](O)CN2C(=O)[C@@H](NC(=O)CCCCCOCCOCCOCCCCCCOc2ccc(C(F)(F)F)c(CNC(=O)c3cccc(NCc4nnc(-c5ccncn5)n4C)c3)c2)C(C)(C)C)cc1 [Compound D92, (2S,4R)-1-((S)-2-(tert-butyl)-22-(3-((3-(((4-methyl-5-(pyrimidin-4-yl)-4H-1,2,4-triazol-3-yl)methyl)amino)benzamido)methyl)-4-(trifluoromethyl)phenoxy)-4-oxo-10,13,16-trioxa-3-azadocosan-1-oyl)-4-hydroxy-N-(4-(4-methylthiazol-5-yl)benzyl)pyrrolidine-2-carboxamide] |  |  |  |  | < 100 |  |  | 34 | 12 | 5 |  |  |  |  | < 1 | > 10 |
| C[C@@H](NC(=O)c1cccc(NCc2nnc(-c3ccncn3)n2C)c1)c1cccc(OCCCCCCOCCOCCOCCCC(=O)N2CCN(c3ccc4c(c3)CN(C3CCC(=O)NC3=O)C4=O)CC2)c1 (stereo partly drawn) [Compound D179, N-((1R)-1-(3-((6-(2-(2-(4-(4-(2-(2,6-dioxopiperidin-3-yl)-1-oxoisoindolin-5-yl)piperazin-1-yl)-4-oxobutoxy)ethoxy)ethoxy)hexyl)oxy)phenyl)ethyl)-3-(((4-methyl-5-(pyrimidin-4-yl)-4H-1,2,4-triazol-3-yl)methyl)amino)benzamide] | 6.36 | 58 | 82 | 88 |  |  |  |  |  |  |  | 0.14 | > 30 |  |  |  |
